Measurements published in PubChem BioAssay (NCI).
Values joined by “and” are separate entries in the source; they are usually repeats but may differ in a detail not shown here. Equal values may be shown once.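 Method: 48-hour compound exposure of cells in 96-well plates, five concentrations, linear interpolation of endpoints. Abbreviation: GI50, concentration required for 50% inhibition of growth. Definition used: TGI = concentration required for complete inhibition of growth.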

How the values were obtained:
Assay in all cases: NCI anticancer screen, dose series, 48 h
NCI-H460 lung = test system: NCI-H460 lung
SF-295 CNS = test system: SF-295 CNS
A549 NSCLC = test system: A549 NSCLC
NCI-H23 lung = test system: NCI-H23 lung
OVCAR-4 ovarian = test system: OVCAR-4 ovarian
MDA-MB-435 = test system: MDA-MB-435
UO-31 renal = test system: UO-31 renal
RPMI-8226 leukemia = test system: RPMI-8226 leukemia
MCF7 breast = test system: MCF7 breast
K-562 leukemia = test system: K-562 leukemia

SMILES	GI50 (NCI-H460 lung)	TGI (NCI-H460 lung)	GI50 (SF-295 CNS)	TGI (SF-295 CNS)	GI50 (A549 NSCLC)	TGI (A549 NSCLC)	GI50 (NCI-H23 lung)	TGI (NCI-H23 lung)	GI50 (OVCAR-4 ovarian)	TGI (OVCAR-4 ovarian)	GI50 (MDA-MB-435)	TGI (MDA-MB-435)	GI50 (UO-31 renal)	TGI (UO-31 renal)	GI50 (RPMI-8226 leukemia)	TGI (RPMI-8226 leukemia)	GI50 (MCF7 breast)	TGI (MCF7 breast)	GI50 (K-562 leukemia)	TGI (K-562 leukemia)
CN(c1ccc(NC(=O)Nc2c(Cl)cccc2Cl)cc1)c1ccnc(Nc2cccc(CS(C)(=O)=O)c2)n1	0.505 µM	11.6 µM	1.54 µM	12.6 µM	1.65 µM	7.66 µM	2.68 µM	18.5 µM	3.12 µM	12.5 µM	2.26 µM	10.9 µM	4.28 µM	13.3 µM	3680 nM	> 22.7 µM	2.82 µM	> 14.3 µM	1.54 µM	> 25 µM
COc1cc(C2c3cc4c(cc3OC(C)(N3CCCC3)C2C)OCO4)cc(OC)c1OC (configuration not stated)	–	19.2 µM	–	0.661 µM	–	> 100 µM	–	6.32 µM	–	> 100 µM	–	0.377 µM	–	57 µM	–	11.7 µM	–	16.3 µM	–	0.908 µM
CCCCCCCCn1ccc2cc(NC(=O)Cn3cc(CN4CCCCCC4)nn3)ccc21	1.85 µM	3.45 µM	1.74 µM	3.33 µM	1.77 µM	3.36 µM	1.76 µM	3.77 µM	1.59 µM	3.13 µM	1.69 µM	3.18 µM	1.48 µM	2.81 µM	1940 nM	4.31 µM	1.83 µM	3.63 µM	1.67 µM	3.6 µM
CCOc1cccc(/C=N/NC(=O)c2cccc(Nc3ccnc(C(F)(F)F)c3)c2)c1O	1.17 µM	9.53 µM	2.4 µM	27.9 µM	3.73 µM	> 100 µM	1.62 µM	20.8 µM	0.723 µM	48.6 µM	3.1 µM	> 51.2 µM	0.717 µM	26.2 µM	2160 nM	> 100 µM	0.945 µM	21.1 µM	1.32 µM	30.6 µM
CNC(=O)OCc1nc(SSC(C)(C)C)n(C)c1COC(=O)NC	–	26.6 µM	–	31.7 µM	–	28 µM	–	8.11 µM	–	4.3 µM	–	16 µM	–	20.3 µM	–	8.92 µM	–	15.5 µM	–	7.06 µM
CN(C)CCC(=O)N1C/C(=C\c2ccc(Cl)c(Cl)c2)C(=O)/C(=C/c2ccc(Cl)c(Cl)c2)C1	–	1.38 µM	–	0.824 µM	–	2.05 µM	–	1.5 µM	–	0.777 µM	–	1.6 µM	–	0.862 µM	–	0.485 µM	–	0.701 µM	–	0.572 µM
CS(=O)(=O)CCNCc1coc(-c2ccc3ncnc(Nc4ccc(OCc5ccccc5)cc4)c3c2)c1	3.86 µM	8.5 µM	4.39 µM	9.19 µM	5.65 µM	> 22 µM	9.18 µM	> 25 µM	5.94 µM	> 25 µM	4.11 µM	8.23 µM	2.86 µM	6.95 µM	4860 nM	11.6 µM	3.77 µM	12.3 µM	4.54 µM	11 µM
Cn1c(Cl)c(/C=C2/C(=O)Nc3ccccc32)c2ccccc21	0.727 µM	> 32.2 µM	0.223 µM	2.21 µM	6.58 µM	> 63 µM	1.02 µM	8.89 µM	2.62 µM	> 46.7 µM	< 0.0438 µM	0.152 µM	3.39 µM	44.7 µM	582 nM	4.6 µM	0.198 µM	–	0.0601 µM	> 100 µM
CCN(CC)CCCC(CCl)Nc1ccnc2cc(Cl)ccc12 (configuration not stated)	19.6 µM and 24.3 µM	56.4 µM and > 100 µM	13.1 µM and 12.6 µM	26.3 µM and 28.6 µM	20 µM and 27 µM	55 µM and > 100 µM	17.9 µM and 22.1 µM	38.3 µM and > 60.2 µM	35.8 µM and 30.9 µM	> 100 µM	14.6 µM and 6.64 µM	28.3 µM and 19.3 µM	16.6 µM and 21.5 µM	37 µM and > 100 µM	12200 nM	34.4 µM	23.9 µM and 27.9 µM	75.2 µM and > 87.2 µM	3.42 µM and 3.99 µM	15.7 µM
CCCCCCCCCCCCCCCCCCOC[C@H](COP(=O)(O)O[C@H]1[C@H](O)[C@@H](O)[C@H](O)C[C@H]1O)OC	79.4 µM and 11.7 µM	> 100 µM and 26.1 µM	98.4 µM and 15.3 µM	> 100 µM and 30.8 µM	> 100 µM and 15 µM	> 100 µM and 28.8 µM	> 100 µM and 19.3 µM	> 100 µM and 35 µM	> 100 µM and 16 µM	> 100 µM and 36.8 µM	65.9 µM and 11.8 µM	> 100 µM and 43.8 µM	> 100 µM	> 100 µM and 22.1 µM	–	79.7 µM and 30.7 µM	> 100 µM and 17.3 µM	> 100 µM and 32.2 µM	> 100 µM and 18.4 µM	> 100 µM and 55.2 µM
O=C(Oc1ccc[nH]c1=O)c1cc([N+](=O)[O-])cc([N+](=O)[O-])c1	34 µM	> 100 µM	26.6 µM	> 100 µM	> 100 µM	> 100 µM	> 100 µM	> 100 µM	> 100 µM	> 100 µM	51.3 µM	> 100 µM	23.6 µM	> 100 µM	> 100000 nM	> 100 µM	> 100 µM	> 100 µM	34.9 µM	> 100 µM
COc1cccc2c1C(=N)c1c(O)c3c(c(O)c1C2=O)C[C@@](O)(C(C)=O)C[C@@H]3O[C@H]1C[C@H](N)[C@H](O)[C@H](C)O1	0.0472 µM	0.833 µM	0.219 µM	1.27 µM	0.155 µM	1.58 µM	0.233 µM	1.16 µM	–	7.68 µM	1.66 µM	8.91 µM	2.24 µM	19.9 µM	255 nM	4.03 µM	0.0379 µM	5.2 µM	0.322 µM	10.9 µM
CC(C)C(O)(C(C)C)C(C)C	–	> 100 µM	–	> 100 µM	–	> 100 µM	–	> 100 µM	–	> 100 µM	–	> 100 µM	–	> 100 µM	–	> 100 µM	–	> 100 µM	–	> 100 µM
O=C(O)c1ccc(CN2CCC(CN[C@@H]3C[C@H]3c3ccccc3)CC2)cc1	> 100 µM	> 100 µM	> 100 µM	> 100 µM	> 100 µM	> 100 µM	> 100 µM	> 100 µM	> 100 µM	> 100 µM	> 100 µM	> 100 µM	> 100 µM	> 100 µM	> 100000 nM	> 100 µM	> 100 µM	> 100 µM	> 100 µM	> 100 µM
